Source: the METLIN SMRT retention time set (Domingo-Almenara et al. 2019)

Assay: gradient 5% acetonitrile 3 min, to 50% in 2 min, to 85% in 15 min, held 3 min, 100 µL/min
Conditions: column: Zorbax Extend-C18 2.1 x 50 mm; eluents: water / acetonitrile, 0.1% formic acid
In short: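 Using water and acetonitrile that each contained 0.1% formic acid, mixtures of ~100 pure standards were separated at 100 μL/min on a Zorbax Extend-C18 column (2.1 × 50 mm, 1.8 μm). The HPLC fed a quadrupole time-of-flight mass spectrometer working in positive and negative ionization mode, with dead and dwell volumes of 40 μL and 900 μL. Data were acquired over 3 months. Retention time was read from computationally picked adduct peaks after manual inspection of each.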

Compound | RP-LC retention time
Cn1nc(C(=O)N2CCCC(C(=O)NC3CC3)C2)c2c1CCN(C(=O)c1ccco1)C2 (configuration not stated) | 594 s
CC(C)NC(=O)CCc1c(-c2ccc(Cl)cc2)nc2ccccn12 | 622 s
CC(=O)N1CCc2c([nH]c3ccccc23)C12C(=O)Nc1ccccc12 (configuration not stated) | 721 s
CC(=O)c1ccc(N2CCN(C(=O)CN3C(=O)C(C)(C)c4cc(C)ccc43)CC2)cc1 | 855 s
O=C(CNC(=O)c1ccccn1)Nc1nc2ccccc2[nH]1 | 601 s
Cc1cc(C)cc(NS(=O)(=O)c2c(C)sc(C)c2-c2cc(C(F)(F)F)on2)c1 | 1240 s
COc1cc(S(=O)(=O)NCc2ccccc2)c(OC)cc1Br | 867 s
OC(c1ccccc1)(c1ccccc1)C1CN2CCC1CC2 (configuration not stated) | 733 s
CCOc1ccccc1OCc1nn2c(-c3ccccn3)nnc2s1 | 800 s
COc1ccc(S(=O)(=O)Nc2ccc(-c3cn4ccc(C)nc4n3)cc2)c(C)c1C | 715 s
CCc1cccc(C)c1Nc1c(-c2ccc(F)cc2)nc2nc(C)cc(C)n12 | 828 s
CCn1cc(CCNC(=O)Nc2cccc(Cl)c2F)c2cccnc21 | 802 s
CS(=O)(=O)Nc1ccc(Cc2noc(-c3ccc4[nH]cc(CCN)c4c3)n2)cc1 | 686 s
COCCOC1CN(C2CCN(Cc3ccccc3C#N)CC2)C12CCCCC2 (configuration not stated) | 572 s
O=C(C1Sc2ccccc2N(CC(=O)N2CCc3ccccc32)C1=O)N1CCCCCC1 (configuration not stated) | 987 s
CC(=O)N1CCc2cc(-c3ccc(C(=O)NCCN4CCCCC4)cc3)ccc21 | 616 s

Continued, values first:

RP-LC retention time | Compound
711 s | CNC(=O)Cc1csc(NC(=O)c2csc(Nc3cccc(C)n3)n2)n1
914 s | Cn1c(=O)n(C)c2cc(S(=O)(=O)C3CCCCC3)c(NC(=O)c3c(F)cccc3F)cc21
790 s | CCc1nc2cc(N3CCCC(C(=O)NCC(C)C)C3)cnc2nc1CC (configuration not stated)
743 s | CCOc1ccc(S(=O)(=O)N2CCC[C@@H]2C(=O)NCc2csc(C)n2)cc1
673 s | Cc1nc2cccnc2n1C1CCN(C(=O)Nc2cccc(Br)c2)CC1
655 s | COc1cc(CNC(=O)C2CCCN(c3nccc(C)n3)C2)cc(OC)c1OC (configuration not stated)
694 s | O=S(=O)(Nc1cccn2ncnc12)c1ccc(F)cc1
818 s | Cc1nc2c(NC(=O)COc3ccc(F)c(F)c3)cccn2n1
839 s | O=S(=O)(Cc1ccccc1F)N1CCC(c2noc(-c3ccncc3)n2)C1 (configuration not stated)
814 s | COc1ccc(NC(=O)Cn2nc3c(Oc4cccc(F)c4)nccn3c2=O)cc1
704 s | CCCC(=O)Nc1ccc2c(c1)CN(C(=O)c1ccc(F)cc1F)C(C(=O)N(C)C)C2 (configuration not stated)
738 s | COc1ccc(-c2cc(N3CCN(C(=O)COc4ccc(Cl)cc4)CC3)ncn2)cc1
616 s | Cc1ccccc1Cn1ccnc1C(=O)N1CCNC(=O)C1
667 s | Cc1ccc2c(=O)c3c([nH]c2c1C)CCN(CC(=O)Nc1ccc2c(c1)OCCO2)C3
931 s | COCCN(CC(=O)N1CCc2sccc2C1COc1ccc(Cl)cc1)C(=O)C1CC1 (configuration not stated)
898 s | CCCN1C(=O)CN(S(=O)(=O)c2ccccc2)CC1(C)C(=O)NCc1ccc(C)cc1 (configuration not stated)
767 s | O=C(Nc1c(F)cccc1F)N1CCC(c2ccccc2)C1 (configuration not stated)
673 s | CCN(Cc1ccccc1)C(=O)Cn1c(N2CCOCC2)nc(C)cc1=O
927 s | CCOc1ncccc1C(=O)OCc1cc(-c2ccco2)on1
992 s | Cc1ccc(NC(=O)C2CCN(S(C)(=O)=O)c3cc(Cl)ccc3O2)c(C)c1 (configuration not stated)
792 s | CCn1nc(N2CCCC(NC(=O)C3(c4ccccc4)CCCC3)C2)ccc1=O (configuration not stated)
